Series [1] in a line: Antiproliferative activity against human PC3 cells measured after 72 hrs by Alamar blue dye-based fluorescence analysis. Type of series: functional, cell-based, PC-3. The settings on record: for EC50: Homo sapiens, PC-3, 72 h.
A short description of series [2]: Antiproliferative activity against human COLO205 cells measured after 72 hrs by Alamar blue dye-based fluorescence analysis. Type of series: functional, cell-based. The conditions noted are these: colo 205.
Series [3] in a line: Antiproliferative activity against human MIAPaCa2 cells measured after 72 hrs by Alamar blue dye-based fluorescence analysis. The conditions noted are these: mia paca-2. The series is classed as functional, cell-based.
Series [4] can be described thus: Antiproliferative activity against human BxPC3 cells measured after 72 hrs by Alamar blue dye-based fluorescence analysis. The settings on record: bxpc-3. The series is classed as functional, cell-based. For orientation: Alamar Blue is a resazurin reagent that responds to reducing activity.
Series [5] can be described thus: Antiproliferative activity against human 786-O cells measured after 72 hrs by Alamar blue dye-based fluorescence analysis. The series is classed as functional, cell-based. The conditions noted are these: 786-0.
Series [6] in a line: Antiproliferative activity against human HepG2 cells measured after 72 hrs by Alamar blue dye-based fluorescence analysis. Type of series: functional, cell-based.
Series [7] in a line: Antiproliferative activity against human HCT116 cells measured after 72 hrs by Alamar blue dye-based fluorescence analysis. Type of series: functional, cell-based. The settings on record: hct-116.
The subject of series [8] is U-87MG ATCC. Nature of the series: Inhibition of mTORC1/2 in human U87 cells assessed as inhibition of Akt-phosphorylation at S473 residue by Western blot analysis. The series is classed as cell-based. Background: A western blot detects proteins with antibodies after separation by electrophoresis.
In series [9] the target is Ribosomal protein S6 kinase beta-1 (Homo sapiens) (UniProt P23443). Kind of series: Inhibition of mTOR pS6K in human U87 cells assessed as inhibition of 4EBP1 phosphorylation by Western blot analysis. The conditions noted are these: U-87MG ATCC. The series is classed as cell-based.
Ribosomal protein S6 kinase beta-1 (Homo sapiens), sequence (P23443 whole entry, looked up): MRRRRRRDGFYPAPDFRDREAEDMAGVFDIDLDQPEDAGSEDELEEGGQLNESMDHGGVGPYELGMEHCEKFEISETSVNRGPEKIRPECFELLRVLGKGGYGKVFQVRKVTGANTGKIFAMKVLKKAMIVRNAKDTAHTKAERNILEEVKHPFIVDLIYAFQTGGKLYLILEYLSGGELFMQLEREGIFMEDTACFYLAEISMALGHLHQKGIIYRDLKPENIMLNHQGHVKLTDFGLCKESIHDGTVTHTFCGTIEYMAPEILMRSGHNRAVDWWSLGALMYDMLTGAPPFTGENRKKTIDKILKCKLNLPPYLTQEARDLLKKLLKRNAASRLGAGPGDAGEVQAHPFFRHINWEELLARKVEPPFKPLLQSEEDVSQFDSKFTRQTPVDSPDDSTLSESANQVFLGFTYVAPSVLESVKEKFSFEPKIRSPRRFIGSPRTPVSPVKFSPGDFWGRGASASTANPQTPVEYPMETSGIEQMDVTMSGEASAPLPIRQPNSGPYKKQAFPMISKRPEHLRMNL
The nature of series [10]: Toxicity in mouse xenografted with human U87 cells assessed as weight loss at 0.3 to 3 mg/kg measured after 14 days. Type of series: organism-based, U-87MG ATCC. The conditions noted are these: in vivo, 336 h. On the technique in general: Xenograft models place foreign cells or tissue in a host animal.
Series [11] relates to U-87MG ATCC. Kind of series: Antitumor activity against human U87 cells xenografted in mouse assessed as tumor growth inhibition at 0.3 to 3 mg/kg measured after 14 days. The series is classed as functional, organism-based.
Series [12] deals with Ribosomal protein S6 kinase beta-1 (Homo sapiens) (UniProt P23443). Nature of the series: Inhibition of mTOR pS6K in human U87 cells assessed as inhibition of RAS40 phosphorylation by Western blot analysis. Type of series: cell-based. The conditions noted are these: U-87MG ATCC.
Series [13] concerns the target Serine/threonine-protein kinase mTOR (Homo sapiens) (UniProt P42345). Kind of series: Inhibition of mTOR in human U87 cells assessed as reduction in pAKT phosphorylation at residue […] by Western blot method. Type of series: cell-based. The conditions noted are these: U-87MG ATCC.
The target is the same in series [14]. Nature of the series: Inhibition of mTOR in human U87 cells assessed as reduction in p4EBP1 phosphorylation by Western blot method. The series is classed as cell-based. The settings on record: U-87MG ATCC.
Series [15] has the same target. Nature of the series: Inhibition of mTOR in human U87 cells assessed as reduction in pRAS40 phosphorylation by Western blot method. Type of series: cell-based. The settings on record: U-87MG ATCC.
Series [16] is described as follows: Antiproliferative activity against human LNCAP cells measured after 72 hrs by Alamar blue dye-based fluorescence analysis. Type of series: functional, cell-based.
Series [17] is described as follows: Antiproliferative activity against human HT1080 cells measured after 72 hrs by Alamar blue dye-based fluorescence analysis. Type of series: functional, cell-based. The settings on record: ht-1080.
Series [18] can be described thus: Antiproliferative activity against human SKHEP1 cells measured after 72 hrs by Alamar blue dye-based fluorescence analysis. The series is classed as functional, cell-based. The conditions noted are these: sk-hep1.
Series [19] can be described thus: Antiproliferative activity against human 143B cells measured after 72 hrs by Alamar blue dye-based fluorescence analysis. Type of series: functional, cell-based.
Series [20] can be described thus: Antiproliferative activity against human BT474 cells measured after 72 hrs by Alamar blue dye-based fluorescence analysis. The series is classed as functional, cell-based. The settings on record: bt-474.
Series [21] is described as follows: Antiproliferative activity against human MCF7-218 cells measured after 72 hrs by Alamar blue dye-based fluorescence analysis. Type of series: functional, cell-based.
The nature of series [22]: Antiproliferative activity against human MCF7-FL cells measured after 72 hrs by Alamar blue dye-based fluorescence analysis. The series is classed as functional, cell-based.

Active and inactive are the calls of the source. The calls are words filed in the database; no cut-off is given here. Where only a bound is given, the exact number is not on record here.

With `CCc1c2c(nc3ccc(OC(=O)N4CCC(N5CCCCC5)CC4)cc13)-c1cc3c(c(=O)n1C2)COC(=O)[C@]3(O)CC` [IRINOTECAN], the IC50 result in series [1] (pc-3) and in series [2] was “Active” throughout.
With `Nc1nc2cc(-c3nn(C4CCOCC4)c4ncnc(N)c34)ccc2o1`, the EC50 in series [1] is less than 0.1 µM.
The same measure, in the same setting: the result for `CC(C)n1cc(-c2ccc3oc(N)nc3c2)c2c(N)ncnc21` reads less than 0.1 µM.
In the case of `O=c1[nH]cc(F)c(=O)[nH]1` [FLUOROURACIL], the IC50 entry in series [3], in series [4], in series [5], in series [6] and in [7] was “Active” in each case.
In [1], `CC(=O)N1CCC(n2nc(-c3ccc4oc(N)nc4c3)c3c(N)ncnc32)CC1` registered an EC50 of less than 10 µM.
In turn, `Nc1nc2cc(-c3cn(C4CCOCC4)c4ncnc(N)c34)ccc2o1` registered an EC50 in [1] of less than 0.1 µM.
For the molecule `CC(C)n1nc(-c2ccc3oc(N)nc3c2)c2c(N)ncnc21` [SAPANISERTIB], in the series on U-87MG ATCC [8], the inhibition entry is “Dose-dependent effect”. Besides, the inhibition entry in [9], in [12], in series [13], in series [14] and in [15] was “Active” in each case. For the same molecule, in series [10], the Activity entry is reported as “Non-Toxic”. Besides, in the series on U-87MG ATCC [11], the “growth inhibition (GI)” value is “Active”.
`CC(=O)O[C@H]1C(=O)[C@@]2(C)[C@H]([C@H](OC(=O)c3ccccc3)[C@]3(O)C[C@H](OC(=O)[C@H](O)[C@@H](NC(=O)c4ccccc4)c4ccccc4)C(C)=C1C3(C)C)[C@]1(OC(C)=O)CO[C@@H]1C[C@@H]2O` [PACLITAXEL]: in series [16], the IC50 result was “Active”.
In series [1], `CC(C)n1nc(-c2ccc3c(N)noc3c2)c2c(N)ncnc21` gave an EC50 greater than 10 µM.
On the same count and under the same terms, the result for `CC(=O)Nc1noc2cc(-c3nn(C(C)C)c4ncnc(N)c34)ccc12` reads greater than 10 µM.
In the case of `COc1cccc2c1C(=O)c1c(O)c3c(c(O)c1C2=O)C[C@@](O)(C(=O)CO)C[C@@H]3O[C@H]1C[C@H](N)[C@H](O)[C@H](C)O1` [DOXORUBICIN], the IC50 entry in [17], in series [18], in [19], in series [20], in series [21] and in series [22] was “Active” each time.
As to `Nc1nc2cc(-c3nn(C4CCC(N5CCOCC5)CC4)c4ncnc(N)c34)ccc2o1` (configuration not stated), in series [1], the EC50 was less than 1 µM.
Same read-out and setting: the result for `CC(=O)Nc1nc2cc(-c3nn(C(C)C)c4ncnc(N)c34)ccc2o1` reads less than 1 µM.
Regarding `CC(C)n1nc(-c2ccc3nc(N)oc3c2)c2c(N)ncnc21`, the EC50 in series [1] is less than 10 µM.
The molecule `CC(C)n1nc(-c2ccc3onc(N)c3c2)c2c(N)ncnc21` came in with an EC50 in series [1] greater than 10 µM.

Broadly, the EC50 is the concentration giving half of the maximal effect. Low readings indicate a more potent agent, high ones a less potent agent.
